Data: US9957265B2, “N-(2-cyano heterocyclyl) pyrazolo pyridones as janus kinase inhibitors” (Merck Sharp & Dohme Corp., priority 2013, dated 2018)
Read-outs that look alike come from different tables or passages of the source.

Tests used:
JAK1 = JAK1 (Homo sapiens (Human), UniProt P23458); assay: Jak Biochemical HTRF Assay (JAK1); details: recombinant GST-tagged catalytic domain, [ATP] 31.8 μM, unit not given (compound concentrations tested given in nM)
Excerpt: Jak Biochemical HTRF Assay Protocol
Subsequent reagent additions employed an Agilent Bravo.

JAK2 = JAK2 (Homo sapiens (Human), UniProt O60674); assay: Jak Biochemical HTRF Assay (JAK2)
Chain of JAK2 (O60674 849-1124): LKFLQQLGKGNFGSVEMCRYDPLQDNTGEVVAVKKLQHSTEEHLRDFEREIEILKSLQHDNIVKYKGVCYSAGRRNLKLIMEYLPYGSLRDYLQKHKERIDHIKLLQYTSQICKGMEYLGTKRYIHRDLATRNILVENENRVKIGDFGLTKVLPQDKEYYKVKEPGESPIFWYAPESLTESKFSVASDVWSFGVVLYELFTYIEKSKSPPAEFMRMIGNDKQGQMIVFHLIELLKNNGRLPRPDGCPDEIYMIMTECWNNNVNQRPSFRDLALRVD
Procedure: The ability of compounds to inhibit the activity of JAK1, JAK2, JAK3, and TYK2 was measured using a recombinant purified GST-tagged catalytic domain for each enzyme (Invitrogen JAK1 #M4290, JAK2 #M4290, JAK3 #M4290, TYK2 #M4290) in an HTRF format biochemical assay. […] Subsequent reagent additions employed an Agilent Bravo. […] After equilibration, 2 μL of 10×ATP in 1× assay buffer was added to initiate the kinase reaction and the plates were shaken and then incubated at room temperature for 120 minutes. […] After normalization to untreated controls, the percent inhibition of the HTRF signal at each compound concentration was calculated. The plot of percent inhibition versus the log of compound concentration was fit with a 4-parameter dose response equation to calculate IC50 values.
Final reaction conditions were:

[1] = JAK2 IC50, recombinant GST-tagged catalytic domain, [ATP] 8.5 μM, unit not given (compound concentrations tested given in nM)
[2] = read-out: JAK2 IC50, recombinant GST-tagged catalytic domain, [ATP] 8.5 μM, unit not given (compound concentrations tested given in nM)

Chain of JAK1 (P23458 875-1153): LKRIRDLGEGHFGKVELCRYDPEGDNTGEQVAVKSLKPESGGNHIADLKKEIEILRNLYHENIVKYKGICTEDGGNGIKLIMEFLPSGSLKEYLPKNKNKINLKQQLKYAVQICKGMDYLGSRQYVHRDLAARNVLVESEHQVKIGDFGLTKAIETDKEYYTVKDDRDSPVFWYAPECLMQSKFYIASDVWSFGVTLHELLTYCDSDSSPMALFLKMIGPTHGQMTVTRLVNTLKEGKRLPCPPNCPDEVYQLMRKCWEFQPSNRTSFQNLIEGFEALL

SMILES	IC50 (JAK1) [nM]	IC50 (JAK2; [1]) [nM]	IC50 (JAK2; [2]) [nM]
CC(C)(C)S(=O)(=O)c1ccc(Nc2nn(C3COCCC[C@H]3C#N)c3cc[nH]c(=O)c23)cc1 (single isomer, unassigned) [Example 1-24, (3R,4R or 3S,4S)-3-(3-{[4-(tert-butylsulfonyl)phenyl]amino}-4-oxo-4,5-dihydro-1H-pyrazolo[4,3-c]pyridin-1-yl)oxepane-4-carbonitrile]	12.4	14.7	–
N#C[C@H]1CCOC[C@@H]1n1nc(Nc2ccc(C(N3CCSCC3)C(F)(F)F)cc2)c2c(=O)[nH]ccc21 (single isomer, unassigned) [Example 2-5, (3R,4S)-3-[4-oxo-3-({4-[(1S or 1R)-2,2,2-trifluoro-1-thiomorpholin-4-ylethyl]phenyl}amino)-4,5-dihydro-1H-pyrazolo[4,3-c]pyridin-1-yl]tetrahydro-2H-pyran-4-carbonitrile]	0.14	0.15	–
CC(O)(c1ccc(Nc2nn([C@H]3COCC[C@@H]3C#N)c3cc[nH]c(=O)c23)cc1)C(F)(F)F (single isomer, unassigned) [Example 2-3, (3R,4S)-3-[4-oxo-3-({4-[(1R or 1S)-2,2,2-trifluoro-1-hydroxy-1-methylethyl]phenyl}amino)-4,5-dihydro-1H-pyrazolo[4,3-c]pyridin-1-yl]tetrahydro-2H-pyran-4-carbonitrile]	0.06	0.39	–
N#C[C@H]1CCOC[C@@H]1n1nc(Nc2ccc(C(NC3CC3)C(F)(F)F)cc2)c2c(=O)[nH]ccc21 (single isomer, unassigned) [Example 1-81, (3R,4S)-3-[3-({4-[(1R or 1S)-1-(cyclopropylamino)-2,2,2-trifluoroethyl]phenyl}amino)-4-oxo-4,5-dihydro-1H-pyrazolo[4,3-c]pyridin-1-yl]tetrahydro-2H-pyran-4-carbonitrile]	0.08	–	0.15
N#C[C@H]1CCOC[C@@H]1n1nc(Nc2ccc(C(N)C(F)(F)F)cc2)c2c(=O)[nH]ccc21 (single isomer, unassigned) [Example 1-8, (3R,4S)-3-(3-((4-((R or S)-1-amino-2,2,2-trifluoroethyl)phenyl)amino)-4-oxo-4,5-dihydro-1H-pyrazolo[4,3-c]pyridin-1-yl)tetrahydro-2H-pyran-4-carbonitrile]	0.06	0.22	–
CC1CN(S(=O)(=O)c2ccc(Nc3nn([C@H]4COCC[C@@H]4C#N)c4cc[nH]c(=O)c34)cc2)CCO1 (single isomer, unassigned) [Example 1-75, (3R,4S)-3-{3-[(4-{[(2R or 2S)-2-methylmorpholin-4-yl]sulfonyl}phenyl)amino]-4-oxo-4,5-dihydro-1H-pyrazolo[4,3-c]pyridin-1-yl}tetrahydro-2H-pyran-4-carbonitrile]	0.14	0.54	–
CC1CCCN1C(c1ccc(Nc2nn([C@H]3COCC[C@@H]3C#N)c3cc[nH]c(=O)c23)cc1)C(F)(F)F (single isomer, unassigned) [Example 1-88, (3R,4S)-3-{4-oxo-3-[(4-{(1S or 1R)-2,2,2-trifluoro-1-[(2S or 2R)-2-methylpyrrolidin-1-yl]ethyl}phenyl)amino]-4,5-dihydro-1H-pyrazolo[4,3-c]pyridin-1-yl}tetrahydro-2H-pyran-4-carbonitrile]	0.11	0.09	–
CC(C)(C)OC(=O)CNC(c1ccc(Nc2nn([C@H]3COCC[C@@H]3C#N)c3cc[nH]c(=O)c23)cc1)C(F)(F)F (single isomer, unassigned) [Example 1-41, tert-butyl N-{(1S or 1R)-1-[4-({1-[(3R,4S)-4-cyanotetrahydro-2H-pyran-3-yl]-4-oxo-4,5-dihydro-1H-pyrazolo[4,3-c]pyridin-3-yl}amino)phenyl]-2,2,2-trifluoroethyl}glycinate]	0.14	0.6	–
CN(C)C(c1ccc(Nc2nn([C@H]3COCC[C@@H]3C#N)c3cc[nH]c(=O)c23)cc1)C(F)(F)F (single isomer, unassigned) [Example 1-19, (3R,4S)-3-[3-({4-[(1S or 1R)-1-(dimethylamino)-2,2,2-trifluoroethyl]phenyl}amino)-4-oxo-4,5-dihydro-1H-pyrazolo[4,3-c]pyridin-1-yl]tetrahydro-2H-pyran-4-carbonitrile]	0.05	0.08	–
CC1CCN1S(=O)(=O)c1ccc(Nc2nn([C@H]3COCC[C@@H]3C#N)c3cc[nH]c(=O)c23)cc1 (single isomer, unassigned) [Example 1-77, (3R,4S)-3-{3-[(4-{[(2R or 2S)-2-methylazetidin-1-yl]sulfonyl}phenyl)amino]-4-oxo-4,5-dihydro-1H-pyrazolo[4,3-c]pyridin-1-yl}tetrahydro-2H-pyran-4-carbonitrile]	0.05	0.17	–
CN(C)C(c1ccc(Nc2nn([C@H]3COCC[C@@H]3C#N)c3cc[nH]c(=O)c23)cc1)C(F)(F)F (single isomer, unassigned) [Example 1-59, (3R,4S)-3-[3-({4-[(1S or 1R)-1-(dimethylamino)-2,2,2-trifluoroethyl]phenyl}amino)-4-oxo-4,5-dihydro-1H-pyrazolo[4,3-c]pyridin-1-yl]tetrahydro-2H-pyran-4-carbonitrile]	0.05	0.08	–
CC1(C)CN(S(=O)(=O)c2ccc(Nc3nn([C@H]4COCC[C@@H]4C#N)c4cc[nH]c(=O)c34)cc2)CCO1 [Example 1-71, (3R,4S)-3-[3-({4-[(2,2-dimethylmorpholin-4-yl)sulfonyl]phenyl}amino)-4-oxo-4,5-dihydro-1H-pyrazolo[4,3-c]pyridin-1-yl]tetrahydro-2H-pyran-4-carbonitrile]	0.22	–	0.7
Cc1ccc(Nc2nn([C@H]3COCC[C@@H]3C#N)c3cc[nH]c(=O)c23)cc1C [Example 1-68, (3R,4S)-3-{3-[(3,4-dimethylphenyl)amino]-4-oxo-4,5-dihydro-1H-pyrazolo[4,3-c]pyridin-1-yl}tetrahydro-2H-pyran-4-carbonitrile]	0.28	–	1.83
CC1CN(S(=O)(=O)c2ccc(Nc3nn([C@H]4COCC[C@@H]4C#N)c4cc[nH]c(=O)c34)cc2)CCO1 (single isomer, unassigned) [Example 1-74, (3R,4S)-3-{3-[(4-{[(2S or 2R)-2-methylmorpholin-4-yl]sulfonyl}phenyl)amino]-4-oxo-4,5-dihydro-1H-pyrazolo[4,3-c]pyridin-1-yl}tetrahydro-2H-pyran-4-carbonitrile]	0.18	0.52	–
N#C[C@H]1CCOC[C@@H]1n1nc(Nc2ccc(C(N3CCCC3)C(F)(F)F)cc2)c2c(=O)[nH]ccc21 (single isomer, unassigned) [Example 1-42, (3R,4S)-3-[4-oxo-3-({4-[(1R or 1S)-2,2,2-trifluoro-1-pyrrolidin-1-ylethyl]phenyl}amino)-4,5-dihydro-1H-pyrazolo[4,3-c]pyridin-1-yl]tetrahydro-2H-pyran-4-carbonitrile]	0.05	0.13	–
CC(C)N1Cc2ccc(Nc3nn([C@H]4COCC[C@@H]4C#N)c4cc[nH]c(=O)c34)cc2C1 [Example 1-15, (3R,4S)-3-(3-{[2-(1-methylethyl)-2,3-dihydro-1H-isoindol-5-yl]amino}-4-oxo-4,5-dihydro-1H-pyrazolo[4,3-c]pyridin-1-yl)tetrahydro-2H-pyran-4-carbonitrile]	0.12	–	0.27
CC(C)(C)NS(=O)(=O)c1ccc(Nc2nn([C@H]3COCC[C@@H]3C#N)c3cc[nH]c(=O)c23)cc1 [Example 1-10, N-(tert-butyl)-4-((1-((3R,4S)-4-cyanotetrahydro-2H-pyran-3-yl)-4-oxo-4,5-dihydro-1H-pyrazolo[4,3-c]pyridin-3-yl)amino)benzenesulfonamide]	0.08	–	0.21
N#C[C@H]1CCOC[C@@H]1n1nc(Nc2ccc(C(NC3CCCC3)C(F)(F)F)cc2)c2c(=O)[nH]ccc21 (single isomer, unassigned) [Example 1-85, (3R,4S)-3-[3-({4-[(1R or 1S)-1-(cyclopentylamino)-2,2,2-trifluoroethyl]phenyl}amino)-4-oxo-4,5-dihydro-1H-pyrazolo[4,3-c]pyridin-1-yl]tetrahydro-2H-pyran-4-carbonitrile]	0.12	0.14	–
CC(C)(C)OC(=O)CN1Cc2cc(Nc3nn([C@H]4COCC[C@@H]4C#N)c4cc[nH]c(=O)c34)ccc2S1(=O)=O [Example 1-64, tert-butyl [5-({1-[(3R,4S)-4-cyanotetrahydro-2H-pyran-3-yl]-4-oxo-4,5-dihydro-1H-pyrazolo[4,3-c]pyridin-3-yl}amino)-1,1-dioxido-1,2-benzisothiazol-2(3H)-yl]acetate]	0.04	–	0.3
CC1CCCN1C(c1ccc(Nc2nn([C@H]3COCC[C@@H]3C#N)c3cc[nH]c(=O)c23)cc1)C(F)(F)F (single isomer, unassigned) [Example 1-86, (3R,4S)-3-{4-oxo-3-[(4-{(1R or 1S)-2,2,2-trifluoro-1-[(2S or 2R)-2-methylpyrrolidin-1-yl]ethyl}phenyl)amino]-4,5-dihydro-1H-pyrazolo[4,3-c]pyridin-1-yl}tetrahydro-2H-pyran-4-carbonitrile]	0.15	0.23	–
CCNC(c1ccc(Nc2nn([C@H]3COCC[C@@H]3C#N)c3cc[nH]c(=O)c23)cc1)C(F)(F)F (single isomer, unassigned) [Example 1-54, (3R,4S)-3-[3-({4-[(1R or 1S)-1-(ethylamino)-2,2,2-trifluoroethyl]phenyl}amino)-4-oxo-4,5-dihydro-1H-pyrazolo[4,3-c]pyridin-1-yl]tetrahydro-2H-pyran-4-carbonitrile]	0.07	0.14	–
N#C[C@H]1CCOC[C@@H]1n1nc(Nc2ccccc2)c2c(=O)[nH]ccc21 [Example 1-3, (3R,4S)-3-(4-oxo-3-(phenylamino)-4,5-dihydro-1H-pyrazolo[4,3-c]pyridin-1-yl)tetrahydro-2H-pyran-4-carbonitrile]	0.11	–	1.39
